US20050013914A1, “Method of sustaining aroma and use thereof” (priority 2001, published 2005)
Read-outs that look alike come from different tables or passages of the source.

What was measured:
Assay type in all cases: physicochemical
[1] = Adsorption of aromatic substances on CTS crystalline anhydrate (Example C-3)
Procedure: The following explains the experimental method in detail. […] The amount of the adsorbed aromatic substances was calculated by measuring the weight of the resulting powders and subtracting their starting powder weight (4 g).

[2] = Adsorption of liquid ethanol or acetic acid on saccharide powder (Example C-1); conditions: until mixture did not keep a powder form; for Amount of Adsorbed Acetic Acid: acetic acid adsorbed on 1 g of saccharide; for Amount of Adsorbed Ethanol: ethanol adsorbed on 1 g of saccharide
Description: CTS crystalline pentahydrate, prepared by the method described in Example B-3, CTS crystalline monohydrate, prepared by the method described in Example B-4, CTS crystalline anhydrate, prepared by the method described in Example B-5, or CTS amorphous anhydrate prepared by the method described in Example B-6, was used for preparation of aroma-retaining material. “ISOELEAT P™”, a branched cyclodextrin commercialized by Maruha corporation, Tokyo, Japan, anhydrous trehalose prepared by the method described in Japanese Patent Kokai No. 111,284/97, “PINEFIBRE™”, a dextrin commercialized by Matsutani Chemical Industries Co., Ltd., Tokyo, Japan, or soluble starch in a reagent grade commercialized by Katayama Chemical Industries, Co., Ltd., Tokyo, Japan, was dried in vacuo at 80° C. for 16 hours as control saccharides. […] The resulting mixture was weighed. The weight of ethanol or acetic acid was calculated by subtracting the pre-measured saccharide weight. The weight of ethanol or acetic acid adsorbed on 1 g of each saccharide was in Table 1.

[3] = Adsorption and 10-day retention of lavender oil, citronellol or phenethyl alcohol on saccharides (Example C-4); conditions: for Amount of the Adsorbed Substance: freshly prepared sample; for Relative Amount of the Retained Substance: preserved at 25° C. for 10 days vs freshly prepared
Description: The following example is a test to confirm the effect of CTS crystalline hydrate, CTS crystalline anhydrate, or CTS amorphous anhydrate on retaining, as an aromatic substance, lavender oil, citronellol, or phenethyl alcohol. CTS crystalline pentahydrate prepared by the method described in Example B-3, CTS crystalline anhydrate in Example B-5, and CTS amorphous anhydrate in Example B-6 were used as the test saccharides “ISOELEAT P®”, a branched cyclodextrin commercialized by Maruha Corporation, Tokyo, Japan, was used as a control.
In the case of lavender oil, five parts by weight of each of the above saccharides were taken into a glass dish sized 90 mm in diameter and 20 mm in depth, admixed with one part by weight of lavender oil by stirring. Lavender oil was measured by the method described as follows; admixing 2 ml of diethyl ether with 1 g of each of the above samples freshly prepared or after preserved at 25° C. for 10 days; measuring the extracted lavender oil by gas chromatography using “GC-14B” (a gas chromatography commercialized by Shimazu corporation, Kyoto, Japan) equipped with “TC-Wax” (a capillary column sized 0.53 mm in diameter and 25 m in length commercialized by GL Sciences Inc., Tokyo, Japan.
In the case of citronellol or phenethyl alcohol, five parts by weight of each of the above saccharides were taken into a glass dish sized 90 mm in diameter and 20 mm in depth, admixed with one part by weight of citronellol or phenethyl alcohol, and mixed by stirring. The adsorbed citronellol or phenethyl alcohol was measured by admixing 2 ml of diethyl ether with 1 g of each of the above sample freshly prepared or after preserved at 25° C. for 10 days, and measuring the extracted lavender oil by gas chromatography using “GC-14B” (a gas chromatography device commercialized by Shimazu corporation, Kyoto, Japan) equipped with “DB-5” (a capillary column sized 0.25 mm in diameter and 30 m in length commercialized by GL Sciences Inc., Tokyo, Japan).
The amount of the retained aromatic substance in each sample was calculated using the following formula, and the results were shown in Table 4.
Formula: Relative amount of the retained Substance (%)={(an amount of aromatic substance in a sample preserved for 10 days)/(an amount of aromatic substance in a freshly prepared sample)}×100

[4] = aromatic substance adsorbed per 1 g of CTS crystalline anhydrate
[5] = citronellol, listed as Sample 3
[6] = lavender oil, listed as Sample 3
[7] = phenethyl alcohol, listed as Sample 3
[8] = citronellol, listed as Sample 1
[9] = lavender oil, listed as Sample 1
[10] = phenethyl alcohol, listed as Sample 1

Molecule | Amount of Adsorbed Substance [1, 4] [g] | also measured
1-Propanol | 0.46 | –
3-Methyl-1-Propanol | 0.36 | –
OCCCCO [1,4-Butanediol] | – | Amount of Adsorbed Substance [1]: 0.28 g
CCCCCCO [1-Hexanol] | 0.41 | –
CCCCCCCCO [1-Octanol] | 0.28 | –
CCCCCO [1-Pentanol] | 0.31 | –
NCCO [2-Aminoethanol] | 0.13 | –
CC(C)CO [2-Methyl-1-Propanol] | 0.36 | –
CC(C)(C)O [2-Methyl-2-Propanol] | – | Amount of Adsorbed Substance [1]: 0.32 g
CC(C)O [2-Propanol] | 0.48 | –
OCCCc1ccccc1 [3-Phenyl-1-Propanol] | 0.52 | –
CC(=O)O [Acetic Acid] | 0.47 | –
C=CCN=C=S [Allylisothiocyanate] | 0.37 | –
c1ccccc1 [Benzene] | 0.14 | –
OCc1ccccc1 [Benzyl Alcohol] | 0.43 | –
ClCc1ccccc1 [Benzyl Chloride] | 0.32 | –
CCCC(=O)O [Butyric Acid] | 0.55 | –
OCC1OC2OCC3O[C@H](O[C@H]4C(O)C(CO)OC(OCC5O[C@H](O[C@@H](C1O)C2O)C(O)C(O)[C@@H]5O)C4O)C(O)C(O)[C@@H]3O (some centres unmarked) [CTS amorphous anhydrate] | – | Amount of Adsorbed Acetic Acid [2]: 0.47 g; Amount of Adsorbed Ethanol [2]: 0.49 g; Adsorbing capability relative to branched cyclodextrin ([3]; citronellol): about 1.2 fold; Amount of the Adsorbed Substance ([3]; citronellol): 190 mg/g saccharide; Amount of the Adsorbed Substance [3, 5]: 190 mg/g saccharide; Relative Amount of the Retained Substance [3, 5]: 40%; Adsorbing capacity relative to branched cyclodextrin ([3]; lavender oil): about 1.3 fold; Amount of the Adsorbed Substance ([3]; lavender oil, listed as CTS amorphous anhydrte): 185 mg/g saccharide; Amount of the Adsorbed Substance [3, 6]: 185 mg/g saccharide; Relative Amount of the Retained Substance [3, 6]: 8%; Amount of the Adsorbed Substance ([3]; phenethyl alcohol): 180 mg/g saccharide; Amount of the Adsorbed Substance [3, 7]: 180 mg/g saccharide; Relative Amount of the Retained Substance [3, 7]: 12%
OCC1OC2OCC3O[C@H](O[C@H]4C(O)C(CO)OC(OCC5O[C@H](O[C@@H](C1O)C2O)C(O)C(O)[C@@H]5O)C4O)C(O)C(O)[C@@H]3O (some centres unmarked) [CTS crystalline monohydrate] | – | Amount of Adsorbed Acetic Acid [2]: 0.35 g; Amount of Adsorbed Ethanol [2]: 0.45 g
OCC1OC2OCC3O[C@H](O[C@H]4C(O)C(CO)OC(OCC5O[C@H](O[C@@H](C1O)C2O)C(O)C(O)[C@@H]5O)C4O)C(O)C(O)[C@@H]3O (some centres unmarked) [CTS crystalline pentahydrate] | – | Amount of Adsorbed Acetic Acid [2]: 0.27 g; Amount of Adsorbed Ethanol [2]: 0.32 g; Amount of the Adsorbed Substance ([3]; citronellol, listed as CTS crystalline hydrate): 155 mg/g saccharide; Amount of the Adsorbed Substance [3, 8]: 155 mg/g saccharide; Relative Amount of the Retained Substance [3, 8]: 30%; Amount of the Adsorbed Substance ([3]; lavender oil, listed as CTS crystalline hydrate): 150 mg/g saccharide; Amount of the Adsorbed Substance [3, 9]: 150 mg/g saccharide; Relative Amount of the Retained Substance [3, 9]: 1%; Amount of the Adsorbed Substance ([3]; phenethyl alcohol, listed as CTS crystalline hydrate): 140 mg/g saccharide; Amount of the Adsorbed Substance [3, 10]: 140 mg/g saccharide; Relative Amount of the Retained Substance [3, 10]: 3%
CCCCCC(=O)O [Capronic Acid] | 0.47 | –
ClC(Cl)Cl [Chloroform] | – | Amount of Adsorbed Substance [1]: 0.32 g
CC(C)=CCCC(C)CC=O (centres unmarked) [Citronellal] | 0.46 | –
CC(C)=CCCC(C)CCO (centres unmarked) [Citronellol] | 0.39 | –

Molecule | Amount of Adsorbed Substance [1, 4] [g] | also measured
CC(=O)CC(C)(C)O [Diacetone Alcohol] | 0.28 | –
CCOCC [Diethyl Ether] | – | Amount of Adsorbed Substance [1]: 0.17 g
CCO [Ethanol] | 0.50 | –
O=CO [Formic Acid] | – | Amount of Adsorbed Substance [1]: 0.24 g
CC(C)=CCC/C(C)=C/CO [Geraniol] | 0.32 | –
CC(C)c1cccc(=O)c(O)c1 [Hinokithiol] | 0.29 | –
CC(C)C(=O)O [Isobutyric Acid] | 0.51 | –
C=C(C)[C@H]1CC=C(C)CC1 [Limonene] | 0.42 | –
C=CC(C)(O)CCC=C(C)C (centres unmarked) [Linalool] | 0.42 | –
CO [Methanol] | – | Amount of Adsorbed Substance [1]: 0.61 g
CCCCCCCC(=O)O [Octanic Acid] | 0.47 | –
CCCCCOC(C)=O [Pentylacetate] | 0.46 | –
OCCc1ccccc1 [Phenethyl Alcohol] | 0.40 | –
CCC(=O)O [Propionic Acid] | 0.50 | –
CC1=CCC(O)(C(C)C)CC1 (centres unmarked) [Terpinen-4-ol] | 0.34 | –
Cc1ccccc1 [Toluene] | – | Amount of Adsorbed Substance [1]: 0.29 g
CCCCC(=O)O [Valeric Acid] | 0.47 | –
COc1ccccc1O [o-Methoxyphenol] | 0.42 | –
CC(C)(C)N=C=S [t-Butylisothiocyanate] | 0.36 | –
CC1=CCC2CC1C2(C)C (stereo not drawn) [α-Pinene] | 0.35 | –
CC1=CC=C(C(C)C)CC1 [α-Terpinene] | 0.37 | –
CC1=CCC(C(C)(C)O)CC1 (stereo not drawn) [α-Terpineol] | 0.33 | –
C=C1CCC2CC1C2(C)C (stereo not drawn) [β-Pinene] | 0.30 | –
Bornylacetate | 0.48 | –
